Source: US7758903B2, “Cytokine modulators and related methods of use” (Access Business Group International LLC, priority 2003, dated 2010)
Converted amounts (≈) assume the structure as drawn. Where two headings read alike, the source gives them in different places.

Experiments:
[1] = system: IL-1 secretion, THP-1 cells; test: LPS-stimulated IL-1 secretion by THP-1 cells, IL-1 ELISA of supernatant; format: cell-based, human; details: IL-1 in supernatant, THP-1 cells pre-treated 4 hours, LPS 100 nanograms/ml 16 hours; for EC50: Homo sapiens, read-out: EC 50 in ug/ml (50% Effective Dose in vitro)
Experimental: For this evaluation, white blood cells were dosed with varying concentrations of the ingredients. An inflammatory stimulus, lipopolysaccharide (LPS), was then added to the ingredient-plus-cell culture, as well as untreated control samples of white blood cells. The production of the IL-1 cytokine of both the ingredient-treated cells and the untreated cells was compared to extrapolate the concentration of the ingredient that causes a 50% change in the concentration of IL-1 produced by the cells.
To perform the evaluation of inhibiting interleukin synthesis of this example, human white blood cells, specifically THP-1 cells obtained from ATCC of Manassas, Va., were grown under conditions recommended by ATCC in a humidified 37° C. incubator, which was supplied with 5% carbon dioxide. To test the IL-1 inhibitory potential of various compounds, multiple groups of THP-1 cells were plated in 96 well plates. […] With these cell samples plated, they were then dosed.
In dosing, each of the ingredients was administered to the plated THP-1 cells in varying doses, specifically, 100 ug/ml, 10 ug/ml, 1 ug/ml and 0 ug/ml. […] The THP-1 cells, now dosed with the desired ingredients, were returned to the incubator and incubated for 4 hours under the same conditions.
Thereafter, a known inflammatory stimulator, lipopolysaccharide (LPS) was added to each well plate to a final concentration of 100 nanograms/ml. The LPS treated cultures were returned to the incubator for an additional 16 hours. […]
Thereafter, the liquids from each of the wells were removed and the coated plate was washed 3 times in a wash buffer. […] The reaction of the substrate solution (TMB) and the horseradish peroxidase conjugated to the anti-IL-1 antibody produces a colored product with specific spectral absorbance at wavelength of 450 nm.
The calibration standard samples were subjected to the same protocol as the supernatant samples to determine the IL-1 present in those calibration samples. […] The optical density of the standard calibration samples were then plotted to determine a standardized IL-1 absorbance calibration curve.

[2] = system: IL-1/IL-6 Stimulated CRP Secretion, hepatocytes; test: IL-1/IL-6 stimulated CRP secretion by primary hepatocytes, CRP ELISA of supernatant; format: cell-based; details: Homo sapiens, Hepatocyte
Experimental: Hepatocytes' response to IL-1 expression levels was evaluated by measuring CRP in the culture supernatant after exposure of the hepatocytes to IL-1 and IL-6 with or without pre-treatment with varying doses of the other ingredients.
The IL-1 response effects were evaluated in hepatocytes by measuring the secretion of CRP when the hepatocytes were exposed to IL-1α and IL-6 with or without pre-treatment with varying doses of the other ingredients. […] Thus, by measuring CRP secreted by the hepatocytes, the degree of cells' response to IL-1 and/or IL-6 is able to be determined.
To perform the evaluation of this example, human primarily isolated hepatocyte cells, obtained from In vitro Technology of Baltimore, Md., were restored under the conditions recommended by In vitro Technology in a humidified 37° C. incubator, which was supplied with 5% carbon dioxide. To test the CRP response potential of various compounds, multiple groups of hepatocytes were plated in 96 well plates. Specifically, 1×10^4 cells were plated in hepatocyte media supplement with 10% fetal bovine serum which were then exposed with varying doses, specifically, 100 ug/ml, 10 ug/ml, 1 ug/ml and 0 ug/ml of test ingredients. […]

[3] = system: IL-1 secretion, THP-1 cells; test: Synergy or interference of other ingredients with optional primary ingredients in inhibiting LPS-stimulated IL-1 secretion; format: cell-based, human; set-up: key: a “+” indicates interference or synergy, respectively as shown; a “−” indicates no interference or no synergy
Experimental: Specifically, the release of IL-1 from the THP-1 cells after exposure to lipopolysaccharide (LPS) with or without pre-treatment in varying doses of the other ingredients, or a combination of those other ingredients with optional primary ingredients, was measured to evaluate the effects of the other ingredients on monocyte IL-1α secretion.
The other ingredients tested were: blackberry extract, blueberry extract, cranberry extract, rosemary extract, clove extract and resveratrol.
In Table IV, a “−” indicates no interference or no synergy, and a “+” indicates interference or synergy, respectively as shown.

SMILES: O=C(O[C@@H]1Cc2c(O)cc(O)cc2O[C@@H]1c1cc(O)c(O)c(O)c1)c1cc(O)c(O)c(O)c1 [Epigallocatechin gallate]
- EC 50 in ug/ml (50% Effective Dose in vitro) [1]: <1 µg/mL

SMILES: COc1cc(/C=C/C(=O)O)ccc1O [Ferulic acid]
- EC50 [1]: 10 µg/mL (≈ 51.5 µM)

SMILES: CC(C)Oc1ccc2c(=O)c(-c3ccccc3)coc2c1 [Ipriflavone, reference compound]
- EC50 [1]: < 1 µg/mL

SMILES: Oc1ccc(C=Cc2cc(O)cc(O)c2)cc1 [Resveratrol]
- EC50 ([2]; IL-1/IL-6 stimulated CRP secretion, hepatocytes, Example 2, read-out: CRP EC 50 in ug/ml (50% Effective Dose in vitro)): 1 to 10 µg/mL (≈ 4.38 to 43.8 µM)
- EC50 ([2]; hepatocytes activated via IL-1 and IL-6 (1 ng/ml each), read-out: EC50 of CRP secretion inhibition): 1 to 10 µg/mL (≈ 4.38 to 43.8 µM)
- Interference +/− ([3]; with Artichoke): −
- Synergy +/− ([3]; with Artichoke): −
- Interference +/− ([3]; with Nettle Root): −
- Synergy +/− ([3]; with Nettle Root): −
- Interference +/− ([3]; with Olive Extract): −
- Synergy +/− ([3]; with Olive Extract): −
- Interference +/− ([3]; with Rosehips): −
- Synergy +/− ([3]; with Rosehips): −
